Where two headings read alike, the source gives them in different places.
Assays:
Tilletia caries = test: Treatment of oat seeds infested with Tilletia caries (spore germination); format: in vivo
Pythium ultimum = test: Threshold concentration test for use of the compounds against Pythium ultimum (infested soil, garden peas); format: in vivo; set-up: key to root evaluation (1-4): 4: white roots without fungous necrosis; 3: white roots, minor fungous necrosis; 2: brown roots, already more pronounced fungous necrosis; 1: heavy fungous necrosis, roots rotted; conditions: for root evaluation (1-4): 3 weeks; for number of sound peas: 20 grains per dish, 3 weeks at 20-24° C.
Description: Threshold concentration test for use of the compounds against Pythium ultimum
A 20% concentration of certain pulverulent active agents as listed below were mixed in uniform manner into a soil which had been heavily infested by Pythium ultimum. The thus treated soil was then placed into clay dishes of a capacity of 0.5 l earth. Without any intermediate time lapse 20 grain of garden peas (Pisum sativum L. convar. medullare Alef.) of the type "Wunder von Kelvedon" were then seeded into each of the clay dishes. After a cultivation period of three weeks at 20° to 24° C. in a hothouse the number of sound peas was determined and a root evaluation was carried out. The active agents amounts and results appear from the following table.
(§1) The root evaluation was carried out on a scale from 1 to 4 as follows: […]

Helminthosporium gram = conditions: about 5 weeks
Description: Treatment of barley seeds infested with Helminthosporium gram
After emergence, the plants were subjected to illumination for 12 hours per day. After about 5 weeks the infested plants were counted and the total number of plants for each test were also counted. The active agents tested were used as pulverulent compositions.

Plasmopara viticola = test: Prophylactic leaf treatment of grapevines in the hothouse against Plasmopara viticola; format: in vivo
Description: Effects of prophylactic leaf treatment of grapevines in the hothouse against Plasmopara viticola
Young grapevine plants having from 5 to 8 leaves were sprayed dripping wet with the concentrations of active agents stated in the table below. After drying of the spray deposit the leaves were sprayed with an aqueous suspension of sporangia of the fungus (about 20,000 per ml); the spraying was applied to the bottom side of the leaves. The plants were then immediately incubated in a hothouse at a temperature of 22° to 24° C. and at maximum water saturation in the atmosphere. Beginning with the second day the humidity of the air was reduced for 3 to 4 days to normal level (30 to 70% saturation) and was then maintained for another day on the level of full saturation. Subsequently, the percentage portion of the fungus infested surface of each leaf was noted and the average per treatment was calculated in order to determine the fungicidal activity. This was done on the basis of the following formula: [formula]
The active compounds were applied in the form of a 20% concentration spray powder.

Piricularia oryzae = format: in vivo; conditions: 5 days
[1] = system: Helminthosporium gramineum; test: Seed treatment in open field tests for infestation by Helminthosporium gramineum (barley); format: in vivo; conditions: summer barley, about 3 months
Description: Seed treatment in open field tests for infestation by Helminthosporium gramineum
The active agents were used in the form of pulverulent compositions. After about 8 months in case of winter barley and after about 3 months in case of summer barley the infested plants were counted and the activity was calculated by the formula [formula]

Fusarium avenaceum = test: Threshold concentration test in case of Fusarium avenaceum (infested soil, garden peas); format: in vivo; conditions: for number of sound peas: 20 grains per dish, 18 days at 20-24° C.; for root evaluation (1-4): 18 days
Description: Threshold concentration test in case of Fusarium avenaceum
A 20% pulverulent active agent of the type further identified in the table below was mixed in uniform manner with a soil which had been heavily infested with Fusarium avenaceum. The thus treated soil was then placed into clay dishes of a capacity of 0.5 l of earth. Each dish was seeded without any intervening time with 20 grains of garden peas (Pisum sativum L. convar. medullare Alef.) of the type "Wunder von Kelvedon". After a cultivation time of 18 days at 20° to 24° C. in a hot house the number of sound peas was determined and a root evaluation was carried out. The active agents employed, the amounts and results appear from the following table.
as §1

[2] = concentration of active agent 0.005 (unit not given)
[3] = concentration of active agent 0.025 (unit not given)
[4] = 50 g active agent/100 kg barley
[5] = concentration of active agent 0.001 (unit not given)
[6] = 25 g active agent/100 kg barley
[7] = 100 g active agent/100 kg barley

Row | Structure (SMILES) | % activity (Tilletia caries; 20 g active agent per 100 kg) [%] | % activity (Tilletia caries; 50 g active agent per 100 kg) [%] | root evaluation (1-4) (Pythium ultimum; 20 mg/l soil) | number of sound peas (Pythium ultimum; 20 mg/l soil) | root evaluation (1-4) (Pythium ultimum; 40 mg/l soil) | number of sound peas (Pythium ultimum; 40 mg/l soil) | root evaluation (1-4) (Pythium ultimum; 80 mg/l soil) | number of sound peas (Pythium ultimum; 80 mg/l soil) | % activity (Helminthosporium gram; 10 g active agent per 100 kg) [%] | % activity (Helminthosporium gram; 20 g active agent per 100 kg) [%] | % activity (Helminthosporium gram; 50 g active agent per 100 kg) [%] | % activity (Plasmopara viticola; [2]) [%] | % activity (Plasmopara viticola; [3]) [%] | % activity (Tilletia caries; 10 g active agent per 100 kg) [%] | % activity [1, 4] [%] | other results
1 | C[S+]([O-])c1nnc(C(=O)NC2CC2)s1 (stereo not shown) [5-methylsulfinyl-1,3,4-thiadiazole-2-carboxylic acid-cyclopropylamide] | 98 | 100 | 1 | 15 | 4 | 20 | 4 | 20 | 72 | 98 | 99 | 80 | 90 | – | – | –
2 | CN(CCC(N)CC(=O)NC1C=CC(n2ccc(N)nc2=O)OC1C(=O)O)C(=N)N (stereo not shown) [Blasticidin-S, reference compound] | – | – | – | – | – | – | – | – | – | – | – | – | – | – | – | % activity (Piricularia oryzae; concentration of active agent 0.02 (percentages)): 90%; % activity (Piricularia oryzae; concentration of active agent 0.1 (percentages)): 97%
3 | CCC[S+]([O-])c1nnc(C#N)s1 (stereo not shown) [5-propylsulfinyl-1,3,4-thiadiazole-2-carbonitrile] | 100 | 100 | 1 | 9 | 4 | 16 | 4 | 18 | – | 87 | 99 | 100 | 100 | 99 | 99.3 | % activity (Plasmopara viticola; [5]): 100%; number of sound peas (Fusarium avenaceum; 25 mg/l soil): 19; root evaluation (1-4) (Fusarium avenaceum; 25 mg/l soil): 4; number of sound peas (Fusarium avenaceum; 50 mg/l soil): 20; root evaluation (1-4) (Fusarium avenaceum; 50 mg/l soil): 4; number of sound peas (Fusarium avenaceum; 100 mg/l soil): 19; root evaluation (1-4) (Fusarium avenaceum; 100 mg/l soil): 4
4 | CCCCS(=O)(=O)c1nnc(C(N)=O)s1 [5-butylsulfonyl-1,3,4-thiadiazole-2-carboxamide] | – | – | 1 | 11 | 4 | 20 | 4 | 18 | – | – | – | 73 | 90 | – | – | number of sound peas (Fusarium avenaceum; 25 mg/l soil): 15; root evaluation (1-4) (Fusarium avenaceum; 25 mg/l soil): 2; number of sound peas (Fusarium avenaceum; 50 mg/l soil): 12; root evaluation (1-4) (Fusarium avenaceum; 50 mg/l soil): 3; number of sound peas (Fusarium avenaceum; 100 mg/l soil): 16; root evaluation (1-4) (Fusarium avenaceum; 100 mg/l soil): 4
5 | CC[S+]([O-])c1nnc(C#N)s1 (stereo not shown) [5-ethylsulfinyl-1,3,4-thiadiazole-2-carbonitrile] | 100 | 100 | 4 | 20 | 4 | 19 | 4 | 19 | 98 | 100 | 100 | 96 | 100 | 99.8 | 100 | % activity (Plasmopara viticola; [5]): 89%; number of sound peas (Fusarium avenaceum; 25 mg/l soil): 19; root evaluation (1-4) (Fusarium avenaceum; 25 mg/l soil): 4; number of sound peas (Fusarium avenaceum; 50 mg/l soil): 20; root evaluation (1-4) (Fusarium avenaceum; 50 mg/l soil): 4; number of sound peas (Fusarium avenaceum; 100 mg/l soil): 20; root evaluation (1-4) (Fusarium avenaceum; 100 mg/l soil): 4
6 | CCNC(=O)c1nnc(S(=O)(=O)CC)s1 [5-ethylsulfonyl-1,3,4-thiadiazole-2-carboxylic acid ethylamide] | 100 | 100 | 4 | 15 | 4 | 16 | 4 | 16 | – | 100 | 100 | – | 98 | 99.3 | 99.5 | % activity [1, 6]: 98%; % activity [1, 7]: 100%
7 | CCS(=O)(=O)c1nnc(C(=O)NC2CC2)s1 [5-ethylsulfonyl-1,3,4-thiadiazole-2-carboxylic acid-cyclopropylamide] | 100 | 100 | – | – | – | – | – | – | – | – | – | – | – | 85 | – | % activity ([1]; 200 g active agent/100 kg barley): 100%
8 | CCCCS(=O)(=O)c1nnc(C#N)s1 [5-butylsulfonyl-1,3,4-thiadiazole-2-carbonitrile] | 95 | 100 | – | – | – | – | – | – | – | – | – | 91 | 93 | – | – | number of sound peas (Fusarium avenaceum; 25 mg/l soil): 18; root evaluation (1-4) (Fusarium avenaceum; 25 mg/l soil): 4; number of sound peas (Fusarium avenaceum; 50 mg/l soil): 20; root evaluation (1-4) (Fusarium avenaceum; 50 mg/l soil): 4; number of sound peas (Fusarium avenaceum; 100 mg/l soil): 20; root evaluation (1-4) (Fusarium avenaceum; 100 mg/l soil): 4
9 | C=CCNC(=O)c1nnc([S+](C)[O-])s1 (stereo not shown) [5-methylsulfinyl-1,3,4-thiadiazole-2-carboxylic acid-allylamide] | 100 | 100 | 4 | 20 | 4 | 19 | 4 | 18 | 94 | 99 | 100 | – | 90 | 99.2 | 100 | –
10 | COCCNC(=O)c1nnc([S+](C)[O-])s1 (stereo not shown) [5-methylsulfinyl-1,3,4-thiadiazole-2-carboxylic acid-(2-methoxyethyl)-amide] | – | – | – | – | – | – | – | – | 75 | 97 | 100 | – | 96 | – | – | –
11 | CCC(C)S(=O)(=O)c1nnc(C(N)=O)s1 (stereo not shown) [5-sec.-butylsulfonyl-1,3,4-thiadiazole-2-carboxamide] | – | – | – | – | – | – | – | – | – | – | 97 | – | – | – | 94 | –
12 | CCS(=O)(=O)c1nnc(C(=O)N2CCOCC2)s1 [5-ethylsulfonyl-1,3,4-thiadiazole-2-carboxylic acid-(N,N-3-oxapentamethyleneamide] | – | 100 | – | – | – | – | – | – | 99 | 100 | 100 | – | – | – | 99.3 | –
13 | CS(=O)(=O)c1nnc(C(=O)N2CCC2)s1 [5-methylsulfonyl-1,3,4-thiadiazole-2-carboxylic acid-N,N-trimethylenamide] | 99 | 100 | 4 | 19 | 4 | 20 | 4 | 20 | – | – | – | 84 | 90 | – | – | –
14 | C[S+]([O-])c1nnc(C(=O)N2CCC2)s1 (stereo not shown) [5-methylsulfinyl-1,3,4-thiadiazole-2-carboxylic acid-N,N-trimethylenamide] | 96 | 100 | 2 | 12 | 4 | 16 | 4 | 19 | – | 95 | 100 | 93 | 94 | – | – | % activity (Plasmopara viticola; [5]): 86%
15 | CCCCN(C)C(=O)c1nnc(S(=O)(=O)CC)s1 [5-ethylsulfonyl-1,3,4-thiadiazole-2-carboxylic acid-(N-butyl,N-methyl)-amide] | 100 | 100 | – | – | – | – | – | – | – | 100 | 100 | 100 | 100 | 98 | 96.9 | % activity [1, 6]: 94%; % activity [1, 7]: 99.5%; % activity (Plasmopara viticola; [5]): 100%

— US4281121A, “1,3,4-Thiadiazole-2-carboxylic acid derivatives, process for making the same and fungicidal and nematocidal compositions containing same” (Schering Aktiengesellschaft, priority 1978, dated 1981)
